Experimental data as given in US20230041271A1, “Mitochondria-Targeted Polypeptide, Preparation Method thereof, and Use thereof” (Shenzhen Campus of Sun Yat-sen University, priority 2021, published 2023).
Square brackets hold non-standard residues; d marks the D form. Peptide text beside a SMILES is read from it. * marks the point of attachment. X2 = COc1cccc2c1C(=O)c1c(O)c3c(c(O)c1C2=O)C[C@@](O)(C(=O)CO)C[C@@H]3O[C@H]1C[C@H](NC(=O)OCCSSCCOC(=O)*)[C@H](O)[C@H](C)O1; 2Nal = N[C@@H](Cc1ccc2ccccc2c1)C(=O)O; d2Nal = N[C@H](Cc1ccc2ccccc2c1)C(=O)O; X1 = O=C1NC2CS[C@@H](CCCCC(=O)*)C2N1

Columns and labels:
[1] = system: Hela cells; test: Drug release test of prodrug 17 in cells (fluorescence imaging); assay type: cell-based; conditions: for localization in the cells: HeLa cells
Protocol: Hela cells were cultured in an 8-well imaging dish and then treated with prodrug 17 (1 μM) for a certain time (1 h, 2 h, 3 h and 5 h). After the culture medium was removed, the cells were washed with PBS, a fresh culture medium was used for replacement, and the treated cells were then photographed by a fluorescence microscope. In addition, the cells were directly co-incubated with compound 17 (1 μM) for 1 h and then incubated with exogenous GSH (2 mM) for another 1 h (totally 2 h of incubation with compound 17); the cells were pretreated with the GSH inhibitor BSO (5 mM) for 24 h and then incubated with compound 17 (1 μM) for 3 h; and the cells were pre-incubated with a tumor-targeted biotin ligand at various concentrations (1 mM or 2 mM) for 1 h and then co-incubated with compound 17 for 3 h. After the culture medium was removed, the cells were washed with PBS, a fresh culture medium was used for replacement, and a fluorescence microscope was then used to take an image, which was used as the control.

[2] = Drug release and stability test of prodrug 17 in PBS solution with or without GSH (fluorescence, HPLC, ESI-MS); assay type: physicochemical
Protocol: Prodrug 17 (5 mM stock solution in DMSO) was diluted with PBS to form a solution at an indicated concentration and then incubated at 37° C. with a glutathione (GSH) solution at a specified concentration (0-12 mM GSH for concentration-dependent study and 10 mM GSH for time-dependent study), and the fluorescence of the treated sample was monitored periodically at specific time points. The change in the fluorescence intensity of the sample reflected the drug release behavior of prodrug 17 under GSH activation. In addition, a chromatogram was detected by high performance liquid chromatography after co-incubation of prodrug 17 (20 μM) with GSH (10 mM) in a PBS solution at 37° C. for 6 h, and a mass spectrum of the reaction solution was detected by ESI-MS.

[3] = system: normal CHO cells; test: Cytotoxicity test (MTT) on normal cells; assay type: cell-based; conditions: various concentrations, 48 h
Protocol: (§1) Cells were inoculated in a 96-well plate and cultured overnight in a cell incubator containing 5% CO2 at 37° C. The cells were treated with prodrug 17 at various concentrations and cultured in a cell incubator containing 5% CO2 at 37° C. for 48 h. A commercial MTT assay kit was then used to measure the cell viability. The experiment was repeated three times, and the data were analyzed by GraphPad Prism 6.0 software.

[4] = system: HeLa tumor cells; test: Cytotoxicity test (MTT) on tumor cells; assay type: cell-based; conditions: various concentrations, 48 h
Protocol: as §1

[5] = system: mitochondria of HeLa cells; test: Mitochondrial co-localization confocal imaging with MitoTracker Deep Red; assay type: cell-based; conditions: for co-localization coefficient with the commercial mitochondrial dye (MitoTracker Deep Red): HeLa cells, confocal imaging, 50 nM MitoTracker Deep Red
Protocol: The synthesized mitochondria-targeted fluorescent probes were analyzed by confocal imaging to detect the effect of the arginine number on the mitochondrial localization thereof.
Experimental method: Solid powders of mitochondria-targeted fluorescent probes 8-12 synthesized in Example 3 were dissolved in DMSO to prepare 2 mM test mother solutions, and HeLa cells were cultured in a culture medium (DMEM: FBS: penicillin-streptomycin dual antibody=9:1:0.1). The cells were inoculated in an 8-well imaging dish and cultured in a cell incubator containing 5% CO2 at 37° C. until the cell density reached 60%. After the culture medium was removed, the cells were incubated with the target compound for a specified time. The culture medium was then removed, and wash with PBS was conducted three times. Thereafter, 50 nM commercial mitochondrial probe MitoTracker Deep Red (50 nM) was further added to the culture dish for 15 minutes of continuous incubation. After the culture medium was removed, wash with PBS was conducted three times. Imaging on confocal microscope was then carried out. Blue channel tracker 1 was set, with the excitation wavelength being 405 nm and the emission band being 420-490 nm, and this channel was used to receive fluorescence emitted by the mitochondria-targeted peptide. Red channel tracker 2 was set, with the excitation wavelength being 640 nm and the emission band being 655-755 nm, and this channel was used to receive fluorescence emitted by MitoTracker Deep Red, a commercial mitochondrial dye. In addition, in a cell imaging experiment, green channel tracker 3 was set, with the excitation wavelength being 560 nm and the emission band being 580-620 nm, and this channel was used to receive fluorescence emitted by compound 13. Green channel tracker 4 was set, with the excitation wavelength being 488 nm and the emission band being 500-600 nm, and this channel was used to receive fluorescence emitted by compound 14.

[6] = system: Hela cells; test: Apoptosis detection (Annexin V-PE, flow cytometry); assay type: cell-based; conditions: various concentrations, 24 h
Protocol: Cells were inoculated in a 35 mm culture dish. After culture overnight at 37° C., the cells were treated with prodrug 17 at a specified concentration for 24 h. The cells were then collected, rinsed with PBS, resuspended in 500 μL of 1×buffer, and quantitatively measured by a flow cytometer according to a method given by the apoptosis kit Annexin V-PE.

[7] = system: Hela cells; test: Determination of mitochondrial membrane potential MMP (JC-10 dye); assay type: cell-based; conditions: 0-10 μM, 24 hours
Protocol: Cells were inoculated in a 384-well plate with a black transparent bottom and then cultured overnight in a cell incubator containing 5% CO2 at 37° C., and the cells were treated with prodrug 17 at a specified concentration for 24 hours. An MMP kit (JC-10 dye, MAK-160) was then used for treatment and measurement according to the test method as provided, wherein apoptotic/damaged cells were monitored using λex=490 nm and λem=525 nm, and normal cells were monitored using λex=540 nm and λem=590 nm.

## COc1cccc2c1C(=O)c1c(O)c3c(c(O)c1C2=O)C[C@@](O)(C(=O)CO)C[C@@H]3O[C@H]1C[C@H](N)[C@H](O)[C@H](C)O1 [Dox, doxorubicin, reference compound]
[1]; 1 μM, fluorescence imaging
  localization in the cells: mainly located in the nucleus

## COc1cccc2c1C(=O)c1c(O)c3c(c(O)c1C2=O)C[C@@](O)(C(=O)CO)C[C@@H]3O[C@H]1C[C@H](NC(=O)OCCSSCCOC(=O)NCCCC[C@H](NC(=O)CNC(=O)CNC(=O)[C@@H](Cc2ccc3ccccc3c2)NC(=O)[C@H](Cc2ccc3ccccc3c2)NC(=O)[C@H](CCCNC(=N)N)NC(=O)[C@H](CCCNC(=N)N)NC(=O)[C@H](CCCNC(=N)N)NC(=O)CCCC[C@@H]2SCC3NC(=O)NC32)C(N)=O)[C@H](O)[C@H](C)O1 (some centres unmarked) [prodrug 17] (X1-RRR[2Nal][d2Nal]GGK(X2)-NH2)
[1]; 1 μM, 1-5 h, fluorescence imaging
  uptake by and release in HeLa cells: slowly taken up
[1]; BSO 5 mM 24 h, then 1 μM for 3 h
  cell fluorescence after pre-incubation with the GSH inhibitor BSO: almost no fluorescence
[1]; 1 μM, fluorescence imaging
  localization in the cells: mainly located in mitochondria
[2]; 37° C., 10 mM GSH, PBS
  time at which fluorescence (drug release) reached the maximum value: about 8 hours
[2]; PBS solution at 37° C. for 7 days, HPLC
  stability in PBS solution: no obvious compound degradation
[2]; prodrug 20 μM, GSH 10 mM, PBS, 37° C., 6 h
  GSH-responsive release detected by HPLC and ESI-MS: released Dox and mitochondria-targeted peptide 16 could be clearly detected
[3]
  toxicity to normal cells (CHO cells): almost no toxicity
[4]
  anti-tumor activity (cell viability of HeLa cells): strong anti-tumor activity
[5]; 1 μM in HeLa cells
  mitochondrial targeting (co-localization imaging): excellent mitochondrial targeting properties
[6]
  induction of apoptosis: induce cell death through cell apoptosis
[7]
  mitochondrial membrane potential change: remarkable reduction in mitochondrial membrane potential

## Ac-Arg-Arg-Arg-Arg-Arg-L-Nal-D-Nal-Gly-Gly-Lys [MTPS]
[5]
  co-localization coefficient with the commercial mitochondrial dye (MitoTracker Deep Red): 0.54

## Ac-Arg-Arg-Arg-Arg-L-Nal-D-Nal-Gly-Gly-Lys [MTP4]
[5]
  co-localization coefficient with the commercial mitochondrial dye (MitoTracker Deep Red): 0.68

## Ac-Arg-Arg-Arg-L-Nal-D-Nal-Gly-Gly-Lys [MTP3]
[5]
  co-localization coefficient with the commercial mitochondrial dye (MitoTracker Deep Red): 0.84
[5]; after co-incubation with cells for up to 36 h
  co-localization coefficient with the commercial fluorescent probe after long co-incubation: 0.70

## Ac-Arg-Arg-L-Nal-D-Nal-Gly-Gly-Lys [MTP2]
[5]
  co-localization coefficient with the commercial mitochondrial dye (MitoTracker Deep Red): 0.65
